Source: patent US20110251160A1 (priority 2008, published 2011)
Where “and” joins values, the source holds several entries; their conditions need not be identical. Equal values may be shown once. Read-outs that look alike come from different tables or passages of the source.

How the values were obtained:
[1] = in vivo; cited from earlier work
[2] = Clinical pharmacokinetics and pharmacodynamics of dabigatran etexilate; settings: human, plasma, oral
Plasma protein binding = format: in vitro ADME; settings: read-out: Bound to plasma proteins
[3] = tested on: patients with chronic atrial fibrillation; test: PETRO study, phase 2 12-week dose finding study; format: in vivo, human; settings: in vivo
Description: Primary endpoints were bleeding events and changes in D-dimer. […] Minor bleeding was dose related.

[4] = tested on: activated partial thromboplastin time (aPTT), ecarin clotting time, and thrombin clotting time; test: Clotting time prolongation
[5] = tested on: patients with atrial fibrillation
Description: PETRO-Ex began while the PETRO study was ongoing and investigators were initially kept blinded to patient treatment group until PETRO was completed. Unblinding investigators to patient treatment was possible thereafter.
Data were summarized descriptively; no hypothesis was to be tested. Events were analyzed on the basis of the treatment at onset. Incidences were reported as number of patients with events as well as normalized to 100 patient years on the respective treatment.
Patients who completed PETRO on 50 mg b.i.d. were switched to 150 mg q.d. upon entry in the PETRO-Ex study (N=93 patients). […] Patients who were down titrated to 50 mg q.d. based on a glomerular filtration rate ≦50 mL/min during PETRO were excluded from the long-term trial; patients down-titrated in other dose levels remained on the q.d. treatment at that dose.
The former is represented by the number of thromboembolic events per 100 years, the latter by the number of bleeding events per 100 years.

[6] = tested on: patients with atrial fibrillation at risk of stroke; settings: for Stroke, systemic embolism, pulmonary embolism, myocardial infarction death or major bleed, Rate / Stroke, systemic embolism, pulmonary embolism, myocardial infarction death or major bleed, RR: net benefit
Description: Median follow-up was 2.0 years and the primary outcome was stroke or systemic embolism.
Patients were recruited from 951 clinical centers in 44 countries. In brief, patients were eligible if they had atrial fibrillation documented on electrocardiogram at screening or within 6 months; and at least one of the following: prior stroke or transient ischemic attack; left ventricular ejection fraction less than 40%; New York Heart Association heart failure symptoms of Class 2 or greater within 6 months; age at least 75 years; or age at least 65 years with diabetes mellitus, hypertension or coronary artery disease.
The time in therapeutic range was calculated by the method of Rosendaal (Rosendaal F R, et al., A method to determine the optimal intensity of oral anticoagulant therapy, Thromb Haemost, 1993, 69:236-239), excluding INRs from the first week and after discontinuations. […] Concomitant use of aspirin (less than 100 mg/day) or other antiplatelet agents was allowed.
Liver function testing was performed monthly during the first year of follow-up.
The primary study outcome was stroke or systemic embolism. The primary safety outcome was major hemorrhage. Secondary outcomes were stroke, systemic embolism and death. Other outcomes were myocardial infarction, pulmonary embolism, transient ischemic attacks, and hospitalizations. The primary net benefit-risk outcome was the composite of stroke, systemic embolism, pulmonary embolism, myocardial infarction, death or major hemorrhage. Stroke was defined as sudden onset of focal neurological deficit consistent with the territory of a major cerebral artery and categorized as ischemic, hemorrhagic or unspecified. Hemorrhagic transformation of ischemic stroke was not considered as hemorrhagic stroke. Intracranial hemorrhage included hemorrhagic stroke and sub-dural or sub-arachnoid hemorrhage. Systemic embolism was an acute vascular occlusion of an extremity or organ documented by imaging, surgery or autopsy. Major bleeding was defined as a reduction in hemoglobin level of at least […] or transfusion of at least 2 units of blood or symptomatic bleeding in a critical area or organ. Life-threatening bleeding was a subset of major bleeding that included fatal bleeding, symptomatic intracranial bleeding, bleeding with hemoglobin decrease of more than […] or requiring transfusion of more than 4 units of blood or requiring inotropic agents or necessitating surgery. All other bleeding was considered minor.
All primary and secondary outcome events were blindly and doubly adjudicated. An international team of adjudicators reviewed documents in local languages after blinding; or documents were translated by a independent group and blinded centrally. All transient ischemic attacks were reviewed to ensure that strokes had not been missed. To detect possible unreported events, symptom questionnaires were regularly administered to patients, and adverse events and hospitalization reports were scrutinized for unreported primary or secondary outcomes.
If maximum of the two p-values was greater than 0.025, the minimum of the two p-values must be less than 0.0125, one-sided, to claim statistical significance. All analyses were based on intention-to-treat.

[7] = individual patients with LFT abnormalities, one table line per patient

[H]/N=C(/N)c1ccc(NCc2nc3cc(C(=O)N(CCC(=O)O)c4ccccn4)ccc3n2C)cc1 [Dabigatran]
Serum half-life [1]: 12 to 17 h
half-life [2]: 12 to 17 h
fraction unbound (Plasma protein binding): 0.65 to 0.75
Change in D-dimer levels [3]: comparable to warfarin
Prolongation of aPTT, ecarin clotting time, and thrombin clotting time [4]: dose dependent prolongation
Fatal major bleeds, number ([5]; 150 mg b.i.d.): 4
Fatal major bleeds, number ([5]; 300 mg q.d.): 1
Fatal bleeding events ([5]; all doses): 0.5 % per year
Fatal major bleeds, number ([5]; all doses): five
Intracranial bleed rate ([5]; all doses): 0.4 % per year
LFT abnormality ALT/ULN [5, 7]: >5x xULN (4×) and >5x^# xULN (2×) and >3x xULN (5×) and >3x^# xULN
LFT abnormality AST/ULN [5, 7]: >5x^# xULN (4×) and >5x xULN (4×) and >3x xULN (5×)
All Death, Rate ([6]; Dabigatran 110 mg b.i.d.): 3.74 /100 Person Years
Disabling or Fatal Stroke Modified Rankin 3-6, Rate ([6]; Dabigatran 110 mg b.i.d.): 0.95 /100 Person Years
First Hospitalization, Rate ([6]; Dabigatran 110 mg b.i.d.): 25.1 /100 Person Years
Myocardial Infarction, Rate ([6]; Dabigatran 110 mg b.i.d.): 0.73 /100 Person Years
Non-disabling Stroke Modified Rankin 0-2, Rate ([6]; Dabigatran 110 mg b.i.d.): 0.51 /100 Person Years
Pulmonary embolism, Rate ([6]; Dabigatran 110 mg b.i.d.): 0.12 /100 Person Years
Stroke or systemic embolism, Rate ([6]; Dabigatran 110 mg b.i.d.): 1.55 /100 Person Years
Stroke, Hemorrhagic, Rate ([6]; Dabigatran 110 mg b.i.d.): 0.12 /100 Person Years
Stroke, Rate ([6]; Dabigatran 110 mg b.i.d.): 1.45 /100 Person Years
Vascular Death, Rate ([6]; Dabigatran 110 mg b.i.d.): 2.42 /100 Person Years
All Death, RR ([6]; Dabigatran 110 mg vs. Warfarin): 0.90
Disabling or Fatal Stroke Modified Rankin 3-6, RR ([6]; Dabigatran 110 mg vs. Warfarin): 0.94
First Hospitalization, RR ([6]; Dabigatran 110 mg vs. Warfarin): 0.92
Myocardial Infarction, RR ([6]; Dabigatran 110 mg vs. Warfarin): 1.35
Non-disabling Stroke Modified Rankin 0-2, RR ([6]; Dabigatran 110 mg vs. Warfarin): 0.87
Pulmonary embolism, RR ([6]; Dabigatran 110 mg vs. Warfarin): 1.26
Stroke or systemic embolism, RR ([6]; Dabigatran 110 mg vs. Warfarin): 0.91
Stroke, Hemorrhagic, RR ([6]; Dabigatran 110 mg vs. Warfarin): 0.31
Stroke, Ischemic or Unspecified, RR ([6]; Dabigatran 110 mg vs. Warfarin): 1.12
Stroke, RR ([6]; Dabigatran 110 mg vs. Warfarin): 0.92
Vascular Death, RR ([6]; Dabigatran 110 mg vs. Warfarin): 0.90
All Death, Rate ([6]; Dabigatran 150 mg b.i.d.): 3.63 /100 Person Years
Disabling or Fatal Stroke Modified Rankin 3-6, Rate ([6]; Dabigatran 150 mg b.i.d.): 0.67 /100 Person Years
First Hospitalization, Rate ([6]; Dabigatran 150 mg b.i.d.): 26.7 /100 Person Years
Myocardial Infarction, Rate ([6]; Dabigatran 150 mg b.i.d.): 0.74 /100 Person Years
Non-disabling Stroke Modified Rankin 0-2, Rate ([6]; Dabigatran 150 mg b.i.d.): 0.36 /100 Person Years
Pulmonary embolism, Rate ([6]; Dabigatran 150 mg b.i.d.): 0.15 /100 Person Years
Stroke or systemic embolism, Rate ([6]; Dabigatran 150 mg b.i.d.): 1.11 /100 Person Years
Stroke, Hemorrhagic, Rate ([6]; Dabigatran 150 mg b.i.d.): 0.10 /100 Person Years
Stroke, Ischemic or Unspecified, Rate ([6]; Dabigatran 150 mg b.i.d.): 0.92 /100 Person Years
Stroke, Rate ([6]; Dabigatran 150 mg b.i.d.): 1.01 /100 Person Years
Vascular Death, Rate ([6]; Dabigatran 150 mg b.i.d.): 2.27 /100 Person Years
All Death, RR ([6]; Dabigatran 150 mg vs. 110 mg): 0.97
Disabling or Fatal Stroke Modified Rankin 3-6, RR ([6]; Dabigatran 150 mg vs. 110 mg): 0.70
First Hospitalization, RR ([6]; Dabigatran 150 mg vs. 110 mg): 1.06
Myocardial Infarction, RR ([6]; Dabigatran 150 mg vs. 110 mg): 1.02
Non-disabling Stroke Modified Rankin 0-2, RR ([6]; Dabigatran 150 mg vs. 110 mg): 0.71
Pulmonary embolism, RR ([6]; Dabigatran 150 mg vs. 110 mg): 1.27
Stroke or systemic embolism, RR ([6]; Dabigatran 150 mg vs. 110 mg): 0.72
Stroke, Hemorrhagic, RR ([6]; Dabigatran 150 mg vs. 110 mg): 0.85
Stroke, Ischemic or Unspecified, RR ([6]; Dabigatran 150 mg vs. 110 mg): 0.68
Stroke, RR ([6]; Dabigatran 150 mg vs. 110 mg): 0.70
Vascular Death, RR ([6]; Dabigatran 150 mg vs. 110 mg): 0.94
All Death, RR ([6]; Dabigatran 150 mg vs. Warfarin): 0.88
Disabling or Fatal Stroke Modified Rankin 3-6, RR ([6]; Dabigatran 150 mg vs. Warfarin): 0.66
First Hospitalization, RR ([6]; Dabigatran 150 mg vs. Warfarin): 0.97
Myocardial Infarction, RR ([6]; Dabigatran 150 mg vs. Warfarin): 1.38
Non-disabling Stroke Modified Rankin 0-2, RR ([6]; Dabigatran 150 mg vs. Warfarin): 0.62
Pulmonary embolism, RR ([6]; Dabigatran 150 mg vs. Warfarin): 1.61
Stroke or systemic embolism, RR ([6]; Dabigatran 150 mg vs. Warfarin): 0.66
Stroke, Hemorrhagic, RR ([6]; Dabigatran 150 mg vs. Warfarin): 0.26
Stroke, Ischemic or Unspecified, RR ([6]; Dabigatran 150 mg vs. Warfarin): 0.76
Stroke, RR ([6]; Dabigatran 150 mg vs. Warfarin): 0.64
Vascular Death, RR ([6]; Dabigatran 150 mg vs. Warfarin): 0.84
Mortality rate, death from any cause ([6]; dabigatran 110 mg twice daily): 3.74 % per year
Rate of hemorrhagic stroke ([6]; dabigatran 110 mg twice daily): 0.12 % per year
Rate of myocardial infarction ([6]; dabigatran 110 mg twice daily): 0.73 % per year
Rate of net benefit-risk outcome (major vascular events, major bleeding and death) ([6]; dabigatran 110 mg twice daily): 7.37 % per year
Rate of the primary outcome, stroke or systemic embolism ([6]; dabigatran 110 mg twice daily): 1.55 % per year
Mortality rate, death from any cause ([6]; dabigatran 150 mg twice daily): 3.63 % per year
Rate of hemorrhagic stroke ([6]; dabigatran 150 mg twice daily): 0.10 % per year
Rate of myocardial infarction ([6]; dabigatran 150 mg twice daily): 0.74 % per year
Rate of net benefit-risk outcome (major vascular events, major bleeding and death) ([6]; dabigatran 150 mg twice daily): 7.22 % per year
Rate of the primary outcome, stroke or systemic embolism ([6]; dabigatran 150 mg twice daily): 1.11 % per year
Hepatotoxicity ([6]; human, in vivo): no evidence of hepatotoxicity
Stroke, systemic embolism, pulmonary embolism, myocardial infarction death or major bleed, Rate ([6]; Dabigatran 110 mg b.i.d.): 7.37 /100 Person Years
Stroke, systemic embolism, pulmonary embolism, myocardial infarction death or major bleed, RR ([6]; Dabigatran 110 mg vs. Warfarin): 0.92
Stroke, systemic embolism, pulmonary embolism, myocardial infarction death or major bleed, Rate ([6]; Dabigatran 150 mg b.i.d.): 7.22 /100 Person Years
Stroke, systemic embolism, pulmonary embolism, myocardial infarction death or major bleed, RR ([6]; Dabigatran 150 mg vs. 110 mg): 0.98
Stroke, systemic embolism, pulmonary embolism, myocardial infarction death or major bleed, RR ([6]; Dabigatran 150 mg vs. Warfarin): 0.90
